pIC50: −log10 of the molar value.
Tests used:
[1] = In vitro microsomal stability assay, mouse; assay type: in vitro ADME; details: pH 7.4; mouse liver microsomes, 1 μM compound, 37°C; read-out: Half-life (min) Mean (N = 2)
Protocol: The stability of IEM-1460 in the presence of guinea pig liver microsomes (BioIVT, PN: X008070) or IEM-1925 in the presence of human (BioIVT, PN: M00101), mouse, or guinea pig liver microsomes was evaluated (Paraza Pharma, Inc., Montreal, Quebec, Canada). Both IEM-1925 and IEM-1460 were incubated with microsomes at 37°C for a total of 45 min. Working solutions were prepared in 100 mM potassium phosphate buffer and the final reaction was performed at pH 7.4 in 100 mM potassium phosphate buffer containing 0.5 mg/mL liver microsomal protein. Phase I metabolism was assessed by adding NADPH to a final concentration of 1 mM and collecting samples at time points 0, 5, 15, 30, and 45 min. All collected samples were quenched 1:1 with ice-cold stop solution (1 μM labetalol and 1 μM glyburide in acetonitrile) and centrifuged to remove precipitated protein. […] Samples were analyzed by LC-MS/MS using a Thermo Vanquish UPLC and a Thermo Quantis triple quadrupole mass spectrometer. […] Reference compounds were also assessed to ensure accuracy and precision of experimental protocol: imipramine and verapamil for human liver microsomes, diphenhydramine and verapamil for mouse liver microsomes, and warfarin and verapamil for guinea pig liver microsomes. […] Half-life was determined from a plot of the natural logarithm of the peak area ratio (remaining compound peak area/internal standard peak area) against time. […]

M2 acetylcholine GPCR = target: T1, M2 acetylcholine GPCR (Homo sapiens, UniProt P08172); assay: Radioligand binding assay, M2 receptor (transfected CHO cells); details: antagonist 1 μM
T1 construct: host or cells: CHO cells
Protocol: (§1) Binding assays were conducted to evaluate the affinity of test compounds IEM-1460 and IEM-1925 (Eurofins Scientific, Inc.) for 15 targets: the human alpha-1 adrenergic (A1) receptor, histaminergic (H)-2 and−3 receptors, and muscarinic acetylcholine receptors-1 to−5 in transfected CHO cells by radioligand binding. The neuronal α4β2 and neuronal α7 cholinergic acetylcholine receptors were tested in transfected SH-SY5Y cells. The histaminergic-1 and−4 receptors were tested in transfected HEK-293 cells. Ion channel testing for AMPA and N-methyl-D-aspartate (NMDA) was performed in cells from the rat cerebral cortex. […] Non-specific binding was determined in the presence of 1 μM of DCPX. […] The filters were dried and then counted for radioactivity in a scintillation counter (Topcount, Packard) using a scintillation cocktail (Microscint 0, Packard). The results are expressed as a percent inhibition of the control radioligand specific binding: 100-[(measured specific binding)/(control specific binding) × 100]. […]
(§2) We tested the metabolic stability of the compounds with in vitro liver microsome stability assays (Table 1, right). […] We evaluated the compounds for potential toxicity with assays that test for inhibition of off-target ion channels and receptors. […]

A1 adenosine GPCR = target: T2, A1 adenosine GPCR (Homo sapiens, UniProt P30542); assay: Radioligand binding assay, A1 receptor (transfected CHO cells); details: antagonist 1 μM
T2 construct: host or cells: CHO cells
Protocol: as §1, §2

H1 histamine GPCR = target: T3, H1 histamine GPCR (Homo sapiens, UniProt P35367); assay: Radioligand binding assay, H1 receptor (transfected HEK-293 cells); details: antagonist 1 μM
T3 construct: host or cells: HEK-293 cells
Protocol: as §1, §2

[2] = tested on: non-pyramidal cells (expressing mainly GluA2-lacking CP-AMPARs); set-up: method as in Tikhonov et al., 2000; details: 2000, cited from earlier work; for pIC50: rat hippocampus ref Tikhonov et al.; for apparent selectivity for CP- over CI-AMPARs: ref Tikhonov et al.
M5 acetylcholine GPCR = target: T4, M5 acetylcholine GPCR (Homo sapiens, UniProt P08912); assay: Radioligand binding assay, M5 receptor (transfected CHO cells); details: antagonist 1 μM
T4 construct: host or cells: CHO cells
Protocol: as §1, §2

H2 histamine GPCR = target: T5, H2 histamine GPCR (Homo sapiens, UniProt P25021); assay: Radioligand binding assay, H2 receptor (transfected CHO cells); details: antagonist 1 μM
T5 construct: host or cells: CHO cells
Protocol: as §1, §2

T5 sequence (P25021 whole entry): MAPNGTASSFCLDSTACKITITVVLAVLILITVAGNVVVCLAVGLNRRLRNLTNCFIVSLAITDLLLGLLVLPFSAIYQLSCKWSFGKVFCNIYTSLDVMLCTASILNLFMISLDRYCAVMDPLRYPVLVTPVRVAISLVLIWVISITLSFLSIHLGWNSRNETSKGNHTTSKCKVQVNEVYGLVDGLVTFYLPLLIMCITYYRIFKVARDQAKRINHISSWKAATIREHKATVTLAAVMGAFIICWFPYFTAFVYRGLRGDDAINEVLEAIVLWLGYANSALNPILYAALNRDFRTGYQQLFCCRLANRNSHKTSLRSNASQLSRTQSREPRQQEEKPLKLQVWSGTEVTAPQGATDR
T2 sequence (P30542 whole entry): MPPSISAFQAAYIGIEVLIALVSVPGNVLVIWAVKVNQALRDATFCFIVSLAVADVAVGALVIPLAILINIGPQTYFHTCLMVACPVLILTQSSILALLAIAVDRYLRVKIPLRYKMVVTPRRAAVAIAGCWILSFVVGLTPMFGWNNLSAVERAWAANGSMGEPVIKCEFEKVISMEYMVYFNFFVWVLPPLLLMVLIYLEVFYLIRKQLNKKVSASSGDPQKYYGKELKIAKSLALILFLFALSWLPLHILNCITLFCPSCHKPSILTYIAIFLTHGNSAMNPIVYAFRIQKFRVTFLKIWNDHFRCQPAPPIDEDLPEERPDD
T3 sequence (P35367 whole entry): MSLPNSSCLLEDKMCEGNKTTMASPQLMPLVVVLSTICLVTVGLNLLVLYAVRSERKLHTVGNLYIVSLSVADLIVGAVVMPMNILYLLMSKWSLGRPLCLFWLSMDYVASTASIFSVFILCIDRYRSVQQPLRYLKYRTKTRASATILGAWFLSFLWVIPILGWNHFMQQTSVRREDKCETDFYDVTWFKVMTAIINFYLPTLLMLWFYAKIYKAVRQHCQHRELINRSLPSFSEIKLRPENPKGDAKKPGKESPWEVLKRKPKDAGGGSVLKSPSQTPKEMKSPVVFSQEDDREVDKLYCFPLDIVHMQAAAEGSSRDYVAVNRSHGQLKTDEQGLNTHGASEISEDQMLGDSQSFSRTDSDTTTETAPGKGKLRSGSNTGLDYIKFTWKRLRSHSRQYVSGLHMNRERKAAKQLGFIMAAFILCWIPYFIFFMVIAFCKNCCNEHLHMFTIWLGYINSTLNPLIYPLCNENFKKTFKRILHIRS
T4 sequence (P08912 whole entry): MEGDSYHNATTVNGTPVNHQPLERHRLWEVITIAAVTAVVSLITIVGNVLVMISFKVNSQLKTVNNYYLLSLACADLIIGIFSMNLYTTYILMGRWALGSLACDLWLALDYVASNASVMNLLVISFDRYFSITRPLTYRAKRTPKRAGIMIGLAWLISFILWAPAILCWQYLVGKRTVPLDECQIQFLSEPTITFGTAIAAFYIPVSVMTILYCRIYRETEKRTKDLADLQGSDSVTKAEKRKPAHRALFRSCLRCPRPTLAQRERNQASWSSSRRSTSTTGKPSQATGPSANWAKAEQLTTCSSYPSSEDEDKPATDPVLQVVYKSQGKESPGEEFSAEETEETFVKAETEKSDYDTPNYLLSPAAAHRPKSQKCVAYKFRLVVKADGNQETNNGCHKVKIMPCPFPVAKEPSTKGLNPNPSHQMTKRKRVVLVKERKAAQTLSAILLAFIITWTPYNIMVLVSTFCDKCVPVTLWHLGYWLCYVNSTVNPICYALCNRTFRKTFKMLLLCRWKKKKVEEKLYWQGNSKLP
T1 sequence (P08172 whole entry): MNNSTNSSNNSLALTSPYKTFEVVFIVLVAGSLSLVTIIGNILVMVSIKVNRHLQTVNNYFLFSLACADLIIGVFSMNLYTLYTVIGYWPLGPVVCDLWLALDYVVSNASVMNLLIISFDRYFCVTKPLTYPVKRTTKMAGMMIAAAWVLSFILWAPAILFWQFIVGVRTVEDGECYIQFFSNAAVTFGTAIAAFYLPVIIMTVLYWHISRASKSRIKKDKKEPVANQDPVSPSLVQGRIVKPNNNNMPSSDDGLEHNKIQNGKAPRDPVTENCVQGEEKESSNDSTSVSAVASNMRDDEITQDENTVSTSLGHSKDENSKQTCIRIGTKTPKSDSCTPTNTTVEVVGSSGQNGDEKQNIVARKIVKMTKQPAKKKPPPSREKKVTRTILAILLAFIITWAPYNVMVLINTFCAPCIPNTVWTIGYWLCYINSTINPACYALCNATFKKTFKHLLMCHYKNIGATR

SMILES | half-life at 1 μM [1] | Mean% inhibition (N = 2) of radioligand binding (M2 acetylcholine GPCR) | Mean% inhibition (N = 2) of radioligand binding (A1 adenosine GPCR) | Mean% inhibition (N = 2) of radioligand binding (H1 histamine GPCR) | pIC50 [2] | apparent selectivity for CP- over CI-AMPARs [2] | Mean% inhibition (N = 2) of radioligand binding (M5 acetylcholine GPCR) | Mean% inhibition (N = 2) of radioligand binding (H2 histamine GPCR)
C[N+](C)(C)CCCCCNCC12CC3CC(CC(C3)C1)C2 [IEM-1460] | > 300 min | <1% | <1% | <1% | ~5.52 | ~ 300 fold | 5.2% | <1%
NCCCCCNC1(c2ccccc2)CCCCC1 [IEM-1925] | > 300 min | <1% | <1% | <1% | ~6.00 | ~ 300 fold | <5% | <1%
